Experimental data: ChEMBL document CHEMBL4699547, “Design, synthesis, and multitargeted profiling of N-benzylpyrrolidine derivatives for the treatment of Alzheimer's disease” (Bioorg Med Chem, 2020)
Active and inactive are the calls of the source. No cut-off for these calls is given here.

Tests used:
Beta-secretase 1 = Beta-secretase 1 (Homo sapiens, UniProt P56817); assay: Inhibition of human BACE-1 by FRET assay
Acetylcholinesterase [1] = target: T1, Acetylcholinesterase (Homo sapiens, UniProt P22303); assay: Inhibition of human AChE by Ellman's method
Cholinesterase [2] = target: T2, Cholinesterase (Homo sapiens, UniProt P06276); assay: Inhibition of human BChE by Ellman's method
[3] = Permeability of the compound at 25 ug/ml after 18 hrs by PAMPA-BBB assay
Cholinesterase [4] = target: Cholinesterase (Equus caballus, UniProt P81908); assay: Inhibition of equine serum BuChE by Ellman's method
Rattus norvegicus [5] = assay: Cognitive enhancing effect in scopolamine-induced Wistar rat model of amnesia assessed as effect on total arm entries at 5 mg/kg, po pretreated for 7 days followed by scopolamine challenge by Y-maze test; type: functional, organism-based; details: time 7.0 day
Rattus norvegicus [6] = species: Rattus norvegicus; details: Wistar, dose 5.0 mg/kg, time 7.0 day
Rattus norvegicus [7] = assay: Ex vivo inhibition of AChE in brain of scopolamine-induced Wistar rat model of amnesia at 2.5 to 10 mg/kg, po pretreated for 7 days followed by scopolamine challenge using acetylthiocholine iodide as substrate by Ellman's method; type: functional, organism-based; details: dose mg/kg 2.5-10, time 7.0 day
[8] = Acute toxicity in Wistar rat assessed as abnormal signs at 175 to 1750 mg/kg, po measured up to 14 days by OCED guideline method; type: organism-based; details: in vivo, 336 h, dose 175-1750 mg/kg, time <=14 day
Rattus norvegicus [9] = assay: Cognitive enhancing effect in po dosed scopolamine-induced Wistar rat model of amnesia assessed as increase in spontaneous alteration pretreated for 7 days followed by scopolamine challenge by Y-maze test; type: functional, organism-based; details: dose mg/kg 5-10, time 7.0 day
Rattus norvegicus [10] = assay: Antioxidant activity in scopolamine-induced Wistar rat model of amnesia assessed as increase in SOD level at 2.5 to 10 mg/kg, po pretreated for 7 days followed by scopolamine challenge […]; type: functional, organism-based; details: dose mg/kg 2.5-10, time 7.0 day
Rattus norvegicus [11] = assay: Cognitive enhancing effect in scopolamine-induced Wistar rat model of amnesia assessed as increase in spontaneous alteration at 10 mg/kg, po pretreated for 7 days followed by scopolamine challenge by Y-maze test; type: functional, organism-based; details: time 7.0 day
Rattus norvegicus [12] = assay: Antioxidant activity in scopolamine-induced Wistar rat model of amnesia assessed as decrease in MDA level at 2.5 to 10 mg/kg, po pretreated for 7 days followed by scopolamine challenge […]; type: functional, organism-based; details: dose mg/kg 2.5-10, time 7.0 day
[13] = Acute toxicity in po dosed Wistar rat assessed as maximum tolerated dose by OCED guideline method; type: organism-based; details: in vivo
SH-SY5Y = assay: Neuroprotective activity against amyloid beta (1 to 42)-induced oxidative stress in human SH-SY5Y cells assessed as effect on cell viability at 10 to 80 uM measured after 24 hrs by MTT assay (reference value: 62.1 %); type: functional; details: dose microM 10-80
Rattus norvegicus [14] = assay: Cognitive enhancing effect in scopolamine-induced Wistar rat model of amnesia assessed as effect on total arm entries at 2.5 to 10 mg/kg, po pretreated for 7 days followed by scopolamine challenge by Y-maze test; type: functional, organism-based; details: dose mg/kg 2.5-10, time 7.0 day
[15] = Tmax in Wistar rat at 10 mg/kg, po measured up to 48 hrs; type: ADME, organism-based; details: in vivo
Rattus norvegicus [16] = assay: (§1) Improvement in learning and spatial memory in icv infused amyloid beta (1 to 42)-induced rat model of Alzheimer's disease assessed as increase in number of platform crossing at 10 mg/kg, po administered for 9 consecutive days starting from 7 days post surgery and measured daily for 5 days by Morris water maze test; type: functional, organism-based; details: time 9.0 day
Acetylcholinesterase [17] = target: T1, Acetylcholinesterase; assay: Mixed type inhibition of human AChE assessed as increase in Km using varying level acetylthiocholine iodide as substrate by Lineweaver-Burk plot analysis
[18] = Half life in Wistar rat at 10 mg/kg, po measured up to 48 hrs; type: ADME, organism-based; details: in vivo
[19] = Cmax in Wistar rat at 10 mg/kg, po measured up to 48 hrs; type: ADME, organism-based; set-up: route oral, dose 10 mg/kg, time <=48; details: in vivo
[20] = AUC (0 to 48 hrs) in Wistar rat at 10 mg/kg, po measured up to 48 hrs; type: ADME, organism-based; set-up: route oral, dose 10 mg/kg, time <=48; details: in vivo
Rattus norvegicus [21] = assay: Cognitive enhancing effect in scopolamine-induced Wistar rat model of amnesia assessed as effect on total arm entries at 10 mg/kg, po pretreated for 7 days followed by scopolamine challenge by Y-maze test; type: functional, organism-based; details: time 7.0 day
Acetylcholinesterase [22] = target: T1, Acetylcholinesterase; assay: Mixed type inhibition of human AChE assessed as dissociation constant using varying level acetylthiocholine iodide as substrate by Dixon plot analysis
[23] = MRT in Wistar rat at 10 mg/kg, po measured up to 48 hrs; type: ADME, organism-based; details: in vivo
Acetylcholinesterase [24] = target: T1, Acetylcholinesterase; assay: Mixed type inhibition of human AChE assessed as decrease in Vmax using varying level of acetylthiocholine iodide as substrate by Lineweaver-Burk plot analysis
Rattus norvegicus [25] = assay: as §1, with “reduction” for “increase”, “escape latency” for “number of platform crossing”; type: functional, organism-based; details: time 9.0 day
Cholinesterase [26] = target: T2, Cholinesterase; assay: Inhibition of BChE (unknown origin)

T1 sequence (P22303 whole entry): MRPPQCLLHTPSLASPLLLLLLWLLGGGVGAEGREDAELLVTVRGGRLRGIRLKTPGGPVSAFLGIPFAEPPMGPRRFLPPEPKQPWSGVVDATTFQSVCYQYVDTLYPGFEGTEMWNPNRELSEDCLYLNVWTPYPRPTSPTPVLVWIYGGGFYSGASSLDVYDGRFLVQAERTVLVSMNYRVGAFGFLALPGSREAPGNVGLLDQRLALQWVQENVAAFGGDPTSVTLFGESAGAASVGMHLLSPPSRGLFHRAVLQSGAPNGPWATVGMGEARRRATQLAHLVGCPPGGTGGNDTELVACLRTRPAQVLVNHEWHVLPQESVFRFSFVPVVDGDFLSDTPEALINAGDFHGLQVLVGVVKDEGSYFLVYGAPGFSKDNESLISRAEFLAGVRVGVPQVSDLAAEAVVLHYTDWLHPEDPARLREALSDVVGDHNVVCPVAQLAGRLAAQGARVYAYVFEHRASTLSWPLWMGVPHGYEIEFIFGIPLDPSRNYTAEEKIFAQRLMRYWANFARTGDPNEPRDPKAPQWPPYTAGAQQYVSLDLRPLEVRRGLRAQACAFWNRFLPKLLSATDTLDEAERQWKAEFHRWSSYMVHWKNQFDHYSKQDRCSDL
T2 sequence (P06276 whole entry): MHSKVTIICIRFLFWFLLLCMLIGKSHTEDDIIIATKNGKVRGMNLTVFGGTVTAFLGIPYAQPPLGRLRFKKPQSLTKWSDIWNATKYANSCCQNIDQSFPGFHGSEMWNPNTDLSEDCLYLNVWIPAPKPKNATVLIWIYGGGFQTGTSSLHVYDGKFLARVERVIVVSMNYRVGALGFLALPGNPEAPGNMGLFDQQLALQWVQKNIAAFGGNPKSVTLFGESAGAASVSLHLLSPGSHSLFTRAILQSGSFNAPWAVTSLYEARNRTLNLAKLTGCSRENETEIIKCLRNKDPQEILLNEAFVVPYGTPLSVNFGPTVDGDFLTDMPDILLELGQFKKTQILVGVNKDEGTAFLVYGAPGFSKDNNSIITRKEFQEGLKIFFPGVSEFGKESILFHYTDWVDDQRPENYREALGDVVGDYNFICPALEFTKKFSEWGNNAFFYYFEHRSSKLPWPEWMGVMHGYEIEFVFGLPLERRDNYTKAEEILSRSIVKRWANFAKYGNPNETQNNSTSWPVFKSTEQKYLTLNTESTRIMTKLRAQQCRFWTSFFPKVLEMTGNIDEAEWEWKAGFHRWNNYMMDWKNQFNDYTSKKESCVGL
Chain of Beta-secretase 1 (P56817 whole entry): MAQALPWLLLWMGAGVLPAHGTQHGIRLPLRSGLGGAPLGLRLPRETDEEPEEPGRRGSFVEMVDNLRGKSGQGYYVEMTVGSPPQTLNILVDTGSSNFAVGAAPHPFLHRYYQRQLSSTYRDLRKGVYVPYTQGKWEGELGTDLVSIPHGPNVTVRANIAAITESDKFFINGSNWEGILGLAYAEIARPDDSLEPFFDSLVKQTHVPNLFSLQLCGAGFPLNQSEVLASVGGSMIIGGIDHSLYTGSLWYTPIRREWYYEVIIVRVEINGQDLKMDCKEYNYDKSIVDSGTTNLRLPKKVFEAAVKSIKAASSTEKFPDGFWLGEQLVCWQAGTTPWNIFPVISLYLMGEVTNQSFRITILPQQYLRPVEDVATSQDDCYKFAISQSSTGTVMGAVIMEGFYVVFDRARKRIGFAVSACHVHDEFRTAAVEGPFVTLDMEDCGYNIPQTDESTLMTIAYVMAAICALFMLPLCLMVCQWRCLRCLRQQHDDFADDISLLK
Chain of Cholinesterase (Equus caballus, UniProt P81908) (P81908 whole entry): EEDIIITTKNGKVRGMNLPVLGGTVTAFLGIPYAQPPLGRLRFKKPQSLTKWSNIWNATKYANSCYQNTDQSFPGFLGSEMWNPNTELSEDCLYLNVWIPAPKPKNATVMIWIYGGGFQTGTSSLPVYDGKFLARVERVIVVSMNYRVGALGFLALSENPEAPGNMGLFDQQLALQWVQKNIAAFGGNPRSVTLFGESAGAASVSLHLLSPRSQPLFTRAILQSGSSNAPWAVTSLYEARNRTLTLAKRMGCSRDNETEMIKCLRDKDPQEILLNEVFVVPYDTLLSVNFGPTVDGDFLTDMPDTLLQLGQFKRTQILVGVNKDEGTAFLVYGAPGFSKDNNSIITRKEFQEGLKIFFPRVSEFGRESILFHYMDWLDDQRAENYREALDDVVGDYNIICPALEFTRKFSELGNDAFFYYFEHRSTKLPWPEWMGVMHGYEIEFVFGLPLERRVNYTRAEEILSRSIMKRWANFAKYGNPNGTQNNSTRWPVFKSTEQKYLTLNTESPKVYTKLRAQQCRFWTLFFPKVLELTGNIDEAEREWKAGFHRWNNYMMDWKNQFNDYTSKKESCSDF

Row | Structure (SMILES) | IC50 (Beta-secretase 1) [µM] | IC50 (Acetylcholinesterase [1]) [µM] | IC50 (Cholinesterase [2]) [µM] | other results
1 | COc1cc(/C=N\C2CCN(Cc3ccccc3)C2)cc(OC)c1OC (stereo not drawn) | > 10 | 7.79 | 3.5 | 
2 | Clc1ccc(/C=N\C2CCN(Cc3ccccc3)C2)cc1 (stereo not drawn) | 1.26 | 1.24 | 1.18 | 
3 | Oc1ccccc1CNC1CCN(Cc2ccccc2)C1 (stereo not drawn) | 2.37 | 2.26 | 2.73 | 
4 | Fc1ccc(/C=N\C2CCN(Cc3ccccc3)C2)c(F)c1 (stereo not drawn) | 2.65 | 0.965 | 1.39 | 
5 | O=[N+]([O-])c1ccc(/C=N\C2CCN(Cc3ccccc3)C2)cc1 (stereo not drawn) | 3.78 | 2.46 | 2.35 | 
6 | Cc1cccc(/C=N\C2CCN(Cc3ccccc3)C2)c1 (stereo not drawn) |  | > 10 | 5.79 | 
7 | C(=N/C1CCN(Cc2ccccc2)C1)/c1ccccc1 (stereo not drawn) | 4.38 | 4.12 | 2.68 | 
8 | COc1cc(CNC2CCN(Cc3ccccc3)C2)cc(OC)c1OC (stereo not drawn) | 0.844 | 3.13 | 3.22 | 
9 | Oc1ccccc1/C=N\C1CCN(Cc2ccccc2)C1 (stereo not drawn) |  | > 10 | 4.15 | 
10 | c1ccc(CNC2CCN(Cc3ccccc3)C2)cc1 (stereo not drawn) | 2.42 | 1.13 | 1.57 | 
11 | COc1cccc(/C=N\C2CCN(Cc3ccccc3)C2)c1OC (stereo not drawn) |  | > 10 | 4.27 | 
12 | O=[N+]([O-])c1ccc(CNC2CCN(Cc3ccccc3)C2)cc1 (stereo not drawn) | 1.81 | 0.741 | 1.36 | 
13 | Fc1ccc(CNC2CCN(Cc3ccccc3)C2)cc1 (stereo not drawn) | 0.824 | 0.149 | 0.791 | Papp at 18 h, 25 ug/ml [3]: 4.2 ×10⁻⁶ cm/s
14 | Cc1c(OCc2ccccc2)cccc1N1CCN(CCNC2CCN(Cc3ccccc3)C2)CC1 (stereo not drawn) |  |  |  | IC50 (Cholinesterase [4]): 7.78 µM
15 | Oc1ccc(/C=N\C2CCN(Cc3ccccc3)C2)cc1 (stereo not drawn) | 4.58 | 5.63 | 2.36 | 
16 | FC(F)(F)c1ccc(CNC2CCN(Cc3ccccc3)C2)cc1 (stereo not drawn) | 0.975 | 0.128 | 0.968 | Papp at 18 h, 25 ug/ml [3]: 6.3 ×10⁻⁶ cm/s
17 | COc1cc2c(cc1OC)C(=O)C(CC1CCN(Cc3ccccc3)CC1)C2 (stereo not drawn) |  |  |  | Activity (Rattus norvegicus [5]): inactive; inhibition (Rattus norvegicus [6]): Active

Row | Structure (SMILES) | IC50 (Beta-secretase 1) [µM] | IC50 (Acetylcholinesterase [1]) [µM] | IC50 (Cholinesterase [2]) [µM] | other results
18 | COc1cccc(CNC2CCN(Cc3ccccc3)C2)c1OC (stereo not drawn) | 2.86 | 4.38 | 5.46 | 
19 | Clc1ccc(CNC2CCN(Cc3ccccc3)C2)cc1 (stereo not drawn) | 0.163 | 0.178 | 0.265 | Papp at 18 h, 25 ug/ml [3]: 4.1 ×10⁻⁶ cm/s
20 | Oc1ccc(CNC2CCN(Cc3ccccc3)C2)c(O)c1 (stereo not drawn) | 0.482 | 1.52 | 2.69 | 
21 | FC(F)(F)Oc1ccc(/C=N\C2CCN(Cc3ccccc3)C2)cc1 (stereo not drawn) | 2.09 | 0.864 | 0.695 | 
22 | Cc1cccc(CNC2CCN(Cc3ccccc3)C2)c1 (stereo not drawn) |  | > 10 | 2.97 | 
23 | Fc1ccc(CNC2CCN(Cc3ccccc3)C2)c(F)c1 (stereo not drawn) | 0.097 | 0.069 | 0.127 | inhibition (Rattus norvegicus [7]): Active; Activity [8]: Non-Toxic; Activity (Rattus norvegicus [9]): Dose-dependent effect; Activity (Rattus norvegicus [10]): Active; Activity (Rattus norvegicus [11]): Active; Activity (Rattus norvegicus [12]): Active; MTD [13]: 1750 mg/kg; Papp at 18 h, 25 ug/ml [3]: 5.8 ×10⁻⁶ cm/s; Activity (SH-SY5Y): 66.8%; Activity (Rattus norvegicus [14]): inactive
24 | Brc1ccc(CNC2CCN(Cc3ccccc3)C2)cc1 (stereo not drawn) | 0.648 | 0.133 | 0.758 | Papp at 18 h, 25 ug/ml [3]: 5.1 ×10⁻⁶ cm/s
25 | Brc1ccc(/C=N\C2CCN(Cc3ccccc3)C2)cc1 (stereo not drawn) | 1.75 | 1.3 | 1.19 | 
26 | FC(F)(F)c1ccc(/C=N\C2CCN(Cc3ccccc3)C2)cc1 (stereo not drawn) | 0.683 | 1.04 | 2.15 | 
27 | FC(F)(F)Oc1ccc(CNC2CCN(Cc3ccccc3)C2)cc1 (stereo not drawn) | 0.115 | 0.058 | 0.082 | inhibition (Rattus norvegicus [7]): Active; Activity [8]: Non-Toxic; Tmax [15]: 3.3 h; Activity (Rattus norvegicus [9]): Dose-dependent effect; Activity (Rattus norvegicus [16]): Active; Activity (Rattus norvegicus [10]): Active; inhibition (Acetylcholinesterase [17]): Active; Activity (Rattus norvegicus [11]): Active; Activity (Rattus norvegicus [12]): Active; MTD [13]: 750 mg/kg; Papp at 18 h, 25 ug/ml [3]: 6.9 ×10⁻⁶ cm/s; Activity (SH-SY5Y): 71.5%; half-life [18]: 15.7 h; Cmax [19]: 272 ng/mL; AUC(0-t) [20]: 5460 ng·h/mL; Activity (Rattus norvegicus [21]): inactive; Ki (Acetylcholinesterase [22]): 0.023 µM; MRT [23]: 22.7 h; inhibition (Acetylcholinesterase [24]): Active; Activity (Rattus norvegicus [25]): Active
28 | c1ccc(CC2CCCN(CCNC3CCN(Cc4ccccc4)C3)C2)cc1 (stereo not drawn) |  |  |  | IC50 (Cholinesterase [26]): 1.84 µM
29 | Oc1ccc(CNC2CCN(Cc3ccccc3)C2)cc1 (stereo not drawn) | 0.968 | 1.75 | 1.93 | 
30 | Cc1ccc(/C=N\C2CCN(Cc3ccccc3)C2)cc1 (stereo not drawn) |  | > 10 | 4.86 | 
31 | Oc1ccc(/C=N\C2CCN(Cc3ccccc3)C2)c(O)c1 (stereo not drawn) | 4.43 | 3.68 | 3.28 | 
32 | Cc1ccc(CNC2CCN(Cc3ccccc3)C2)cc1 (stereo not drawn) | 2.25 | 6.39 | 8.75 | 
33 | Fc1ccc(/C=N\C2CCN(Cc3ccccc3)C2)cc1 (stereo not drawn) | 1.96 | 1.07 | 1.05 | 
